Test results published in US7943646B2, “Benzamidine derivative, process for the preparation thereof and pharmaceutical composition comprising same” (Dong Wha Pharmaceutical Co., Ltd., priority 2006, dated 2011).
Like-named read-outs stand apart in the source and are kept apart here.

Legend:
[1] = tested on: osteoclast differentiation; assay: Inhibitory effect on osteoclast differentiation, co-culture of bone marrow cells and osteoblast, TRAP staining; assay type: cell-based, mouse; conditions: for inhibition at 1 µM: Mus musculus, Osteoclast, 168 h, read-out: inhibitory effect on osteoclast differentiation(%)
Method: The effect of the benzamidine derivative of the present invention on osteoclast formation and differentiation process was evaluated via co-culture with an osteoblast.
Tibia was aseptically ectomized from male 6 to 8-week-old ddY mice to harvest bone marrow cells by using a syringe (21G, Korea Green Cross). The bone marrow cells were suspended in 5 mL of an α-MEM medium (Gibco BRL Co., added with sodium bicarbonate (2.0 g/L), streptomycin (100 mg/L) and penicillin ([…]), filtered and then sterilized). The harvested cells were centrifuged at 600×g for 5 mins to collect the whole quantity. To remove the red blood cells in the bone marrow cells, 3 mL of Tris HCl (0.83% NH4Cl, pH 7.5) was added and well mixed. After centrifuging above cells, the numbers of the eukaryotic cells in the harvested bone marrow cells were counted and then immediately used for a co-culture system.
The progenitor bone and the parietal bone were aseptically ectomized from 1 to 2-day-old neonate ICR mice, washed with a phosphate butter solution (PBS) and treated with a mixed enzyme solution (of 0.2% collagenase and 0.1% dispase) sequentially (10, 10, 10, 20, 20 and 20 min), and then 3 to 6 groups of the cells which comprise lot of cells having the characteristics of the osteoblast were intensively collected and washed with a medium (a serum-free α-MEM). The washed cells were cultured in the α-MEM medium containing 10% FBS for 2 to 3 days. After subculturing, the collected cells were used for this experiment, and diluted to a concentration of 1×10^6 cells/mL for storage at −70[…].
The benzamidine derivative of the present invention was dissolved in a sterile distilled water or ethanol to dilute to a desired concentration. The final volume of the sample added to the cell culture medium was set at a ratio of 1:1000.
The bone marrow cells prepared in the above 1-1 and the osteoblast were co-cultured for osteoclast differentiation. Both the bone marrow cells (25,000 cells/cm^2) and the osteoblast (10,000 cells/cm^2) were plated in a 96-well plate using α-MEM medium containing FBS, and then cultured with the samples to be tested for 7 days. Differentiation factors, such as dexamethasone (10^−7 M) and vitamin D3 (10^−8 M), were also co-added to the medium from the first day of cultivation. The medium was changed with a fresh media containing a mixture of the samples and the differentiation factors every 2 to 3 days.
TRAP was used as a marker to measure the matured osteoclast in consideration of its characteristics showing a positive reaction to a TRAP staining solution. The TRAP staining solution was prepared in such the manner that 5 mg of naphtol AS-MS phosphate (sigma N-4875) as a substrate, and 25 mg of a coloring agent (Fast Red Violet LB salt) were dissolved in N,N-dimethylformamide (about 0.5 mL). 50 ml of a 0.1 N NaHCO3 buffer solution containing 50 mM tartaric acid (pH 5.0) was added thereto, and the mixture was stored at a refrigerator prior to use as a staining solution.
After culturing the cells for 7 days, the medium was removed from the wells, the cells were once washed with PBS, and then fixed with PBS containing 10% formalin for 2 to 5 min. The cells were fixed again in a mixed solution of ethanol and acetone (1/1) for about 1 min, and dried off. The cells were further treated by the TRAP staining solution for 15 mins and washed with water and dried off. The osteoclasts with 3 or more nuclei showing a TRAP-positive reaction were counted under a microscopic examination. Each of tests was confirmed over at least three times. The inhibitory effect on osteoclast differentiation of each experimental group, relative to negative controls, was expressed as a percentage (%).

MC3T3 = assay: Cytotoxicity test (MTT), MC3T3; assay type: cell-based; conditions: 10^−6M, 72 hrs, in comparison with the control group
Method: (§1) The cytotoxic effect of the benzamidine derivative of the present invention was evaluated by carrying out the experiment described below.
(§2) The test substance was diluted in an appropriate solvent at a 10^−2 M concentration. This substance was diluted in an appropriate culture medium for the cells used in the cytotoxicity test to a concentration of […], and loaded into a 96-well plate in 100 μl per well. The cell lines to be used in the cytotoxicity test were plated on a 96-well plate in a dose of 1.0×10^4 cells/1OO μl per well and cultured for 72 hrs. 25 μl of MTT [3-(4,5-dimethyl-2-thiazolyl)-2,5-diphenyl-2H-tetrazolium bromide] dissolved in PBS (2 mg/mL) were added before 4 hrs of the end of culture. After completion of the reaction, the plates were centrifuged, the medium was discarded and 100 μl of DMSO was added to dissolve formazan. Finally, the absorbance of the developed plates was measured at 540 nm. The survival rates of the cells were expressed as % concentration values in comparison with the control group.

HOS = assay: Cytotoxicity test (MTT), HOS; assay type: cell-based; conditions: 10^−6M, 72 hrs, in comparison with the control group
Method: as §1, §2

calvaria = assay: Cytotoxicity test (MTT), calvaria; assay type: cell-based; conditions: 10^−6M, 72 hrs, in comparison with the control group
Method: as §1, §2

[2] = 1 μm, 7 days co-culture, TRAP-positive osteoclasts with 3 or more nuclei, relative to negative controls

| Compound | inhibition at 1 µM [1] | survival rates of the cells (MC3T3) | survival rates of the cells (HOS) | survival rates of the cells (calvaria) | inhibition at 1 µM [1, 2] | inhibitory effect on osteoclast differentiation(%) [1, 2] |
| --- | --- | --- | --- | --- | --- | --- |
| N=C(NO)c1ccc(OCCCCCOc2ccc(-c3nc(C4CCCCC4)sc3CCNCCN3CCOCC3)cc2)cc1 [Example 35, N-hydroxy-4-[5-(4-{2-cyclohexyl-5-[2-(2-morpholin-4-yl-ethylamino)-ethyl]-thiazol-4-yl}-phenoxy)-pentyloxy]-benzamidine] | 100% | 98.6% | 115.7% | 81.6% | – | – |
| CN(C)CCc1sc(C2CCCCC2)nc1-c1ccc(OCCCCCOc2ccc(C(=N)NO)cc2)cc1 [Example 37, N-hydroxy-4-(5-{4-[2-cyclohexyl-5-(2-dimethylamino-ethyl)-thiazol-4-yl]-phenoxy}-pentyloxy)-benzamidine] | – | 94.9% | 116.7% | 84.7% | 100% | – |
| CCCN(CCC)CCc1sc(C2CCCCC2)nc1-c1ccc(OCCCCCOc2ccc(C(=N)NO)cc2)cc1 [Example 38, N-hydroxy-4-(5-{4-[2-cyclohexyl-5-(2-dipropylamino-ethyl)-thiazol-4-yl]-phenoxy}-pentyloxy)-benzamidine] | – | 104.7% | 96.2% | 94.9% | 100% | – |
| N=C(NO)c1ccc(OCCCCCOc2ccc(-c3nc(C4CCCCC4)sc3CCNC3CC3)cc2)cc1 [Example 39, N-hydroxy-4-(5-{4-[2-cyclohexyl-5-(2-cyclopropylamino-ethyl)-thiazol-4-yl]-phenoxy}-pentyloxy)-benzamidine] | – | 85.0% | 111.0% | 93.1% | 100% | – |
| N=C(NO)c1ccc(OCCCCCOc2ccc(-c3nc(N)sc3CCNCCN3CCOCC3)cc2)cc1 [Example 40, N-hydroxy-4-[5-(4-{2-amino-5-[2-(2-morpholin-4-yl-ethylamino)-ethyl]-thiazol-4-yl}-phenoxy)-pentyloxy]-benzamidine] | – | 102.2% | 103.2% | 99.7% | 24.6% | – |
| N=C(NO)c1ccc(OCCCCCOc2ccc(-c3nc(-c4ccccc4)sc3CCN3CCOCC3)cc2)cc1 [Example 41, N-hydroxy-4-(5-{4-[5-(2-morpholin-4-yl-ethyl)-2-phenyl-thiazol-4-yl]-phenoxy}-pentloxy)-benzamidine] | – | 85.9% | 78.8% | 78.6% | – | 100% |
| CCc1nc(-c2ccc(OCCCCCOc3ccc(C(=N)NO)cc3)cc2)c(CCN2CCOCC2)s1 [Example 42, N-hydroxy-4-(5-{4-[2-ethyl-5-(2-morpholin-4-yl-ethyl)-thiazol-4-yl]-phenoxy}-pentyloxy)-benzamidine] | – | 81.5% | 98.9% | 73.8% | 100% | – |
| CCc1nc(-c2ccc(OCCCCCOc3ccc(C(=N)NO)cc3)cc2)c(CCN2CCSCC2)s1 [Example 43, N-hydroxy-4-(5-{4-[2-ethyl-5-(2-thiomorpholin-4-yl-ethyl)-thiazol-4-yl]-phenoxy}-pentyloxy)-benzamidine] | – | 86.5% | 80.4% | 91.9% | 97.7% | – |
| Cc1nc(-c2ccc(OCCCCCOc3ccc(C(=N)N)cc3)cc2)c(CCN2CCOCC2)s1 [Example 46, 4-(5-{4-[2-methyl-5-(2-morpholin-4-yl-ethyl)-thiazol-4-yl]-phenoxy}-pentyloxy)-benzamidine] | – | 95.3% | 94.1% | 99.9% | 63.4% | – |
| CNc1nc(-c2ccc(OCCCCCOc3ccc(C(=N)NO)cc3)cc2)c(CCNCCN2CCOCC2)s1 [Example 50, N-hydroxy-4-[5-(4-{2-methylamino-5-[2-(2-morpholin-4-yl-ethylamino)-ethyl]-thiazol-4-yl}-phenoxy)-pentyloxy]-benzamidine] | – | 97.2% | 93.6% | 92.8% | 37% | – |
| CNc1nc(-c2ccc(OCCCCCOc3ccc(C(=N)NO)cc3)cc2)c(CCNCCCn2ccnc2)s1 [Example 51, N-hydroxy-4-[5-(4-{5-[2-(3-imidazol-1-yl-propylamino)-ethyl]-2-methylamino-thiazol-4-yl}-phenoxy)-pentyloxy]-benzamidine] | – | 93.8% | 99.6% | 91.7% | 32% | – |
| N=C(NO)c1ccc(OCCCCCOc2ccc(-c3nc(N(CCN4CCOCC4)Cc4ccccc4)sc3CCN3CCOCC3)cc2)cc1 [Example 56, N-hydroxy-4-(5-{4-[2-[benzyl-(2-morpholin-4-yl-ethyl)-amino]-5-(2-morpholin-4-yl-ethyl)-thiazol-4-yl]-phenoxy}-pentyloxy)-benzamidine] | – | 86.0% | 98.8% | 84.0% | 100% | – |
| CCN(CC)c1nc(-c2ccc(OCCCCCOc3ccc(C(=N)NO)cc3)cc2)c(CCN2CCOCC2)s1 [Example 57, N-hydroxy-4-(5-{4-[2-diethylamino-5-(2-morpholin-4-yl-ethyl)-thiazol-4-yl]-phenoxy}-pentyloxy)-benzamidine] | – | 86.8% | 90.7% | 87.0% | 100% | – |
| N=C(NO)c1ccc(OCCCCCOc2ccc(-c3nc(C4CCCCC4)sc3CCN(C(=O)c3cccnc3)C3CC3)cc2)cc1 [Example 68, N-hydroxy-4-{5-[4-(2-cyclohexyl-5-{2-[cyclopropyl-(pyridine-3-carbonyl)-amino]ethyl}-thiazol-4-yl)-phenoxy]-pentyloxy}-benzamidine] | – | 90.3% | 82.9% | 91.4% | – | – |
